Laboratory results: PMC7027461 (Clinical Pharmacology in Drug Development, 2020)
Values joined by “and” are separate entries in the source; they are usually repeats but may differ in a detail not shown here. Equal entries are not always repeated. “Also recorded” adds a separate entry of the source. Where two headings read alike, the source gives them in different places.

Assays:
[1] = parameters: method as in PMID 19738123; settings: uncoated tablet formulation; cited from earlier work
[2] = parameters: method as in ref 29 = [29]; 29 U.S. Food and Drug Administration . Application Number: 211349Orig1s000; Multi‐Discipline Review. https://www.accessdata.fda.gov/drugsatfda_docs/nda/2018/211349Orig1s000MultidisciplineR.pdf . Publi; settings: single 40‐mg tablet; cited from earlier work
[3] = parameters: method as in ref 23 = [23]; 23 U.S. Food and Drug Administration . Application Number: 207997Orig1s000; 207997Orig2s000. Clinical Pharmacology and Biopharmaceutics Review(s). Available at: https://www.accessdata.fda.gov/drugsatf; settings: single 50‐mg dose, cited from earlier work
[4] = parameters: method as in data on file, Daiichi Sankyo, Inc; settings: ref data on file, Daiichi Sankyo, Inc; cited from earlier work
[5] = prior knowledge used for the study design and sampling duration; no reference given; cited from earlier work
cytochrome P450 3A = settings: cited from earlier work
[6] = BCS classification; no reference given; cited from earlier work
[7] = parameters: method as in data on file, Daiichi Sankyo, Inc; settings: subjects with AML; ref data on file, Daiichi Sankyo, Inc; cited from earlier work
[8] = Safety assessments (AEs, ECG/QTcF, vital signs, laboratory tests) in the food-effect study; type: in vivo, human
Experimental: All randomized subjects who received quizartinib were included in the safety analysis population. Safety assessments included physical examinations, vital signs, 12‐lead ECGs, adverse event (AE) evaluations, and clinical laboratory tests. Hematology, chemistry, serology, and urinalysis tests were performed by a local laboratory. AEs and laboratory tests were graded and summarized based on National Cancer Institute Common Terminology Criteria for Adverse Events version 4.03 and assessed for severity, relation to study drugs, and clinical significance.

CC1(COc2ccc3c(c2)ncn3-c2ccc3cccc(N4CCC(N)CC4)c3n2)COC1 [crenolanib]
effect of food on interpatient variability of Cmax and AUCinf [1]: increased | effect of food on terminal half‐life [1]: no effects | effect of food on tmax [1]: delays

CCc1nc(C(N)=O)c(Nc2ccc(N3CCC(N4CCN(C)CC4)CC3)c(OC)c2)nc1NC1CCOCC1 [gilteritinib]
decrease in AUC with a high‐fat meal vs the fasted state [2]: < 10% | decrease in Cmax with a high‐fat meal vs the fasted state [2]: 26% | delay in median tmax with a high‐fat meal [2]: 2 h

CO[C@@H]1[C@H](N(C)C(=O)c2ccccc2)C[C@H]2O[C@]1(C)n1c3ccccc3c3c4c(c5c6ccccc6n2c5c31)C(=O)NC4 [midostaurin]
increase in exposure with food ([3]; high‐fat meal (900–1000 calories, 50% fat content)): 1.6 fold | increase in exposure with food ([3]; standard meal (450 calories, 25% fat content)): 1.2 fold

CC(C)(C)c1cc(NC(=O)Nc2ccc(-c3cn4c(n3)sc3cc(OCCN5CCOCC5)ccc34)cc2)no1.Cl.Cl [quizartinib, N‐(5‐tert‐butyl‐isoxazol‐3‐yl)‐N′‐{4‐[7‐(2‐morpholin‐4‐yl‐ethoxy)imidazo[2,1‐b][1,3]benzothiazol‐2‐yl]phenyl}urea dihydrochloride]
Plasma protein binding [4]: > 99% | terminal elimination half‐life (t1/2) [5]: approximately 100 hours | cytochrome P450 3A substrate status (cytochrome P450 3A): substrate | permeability [6]: low | solubility [6]: low | effective half‐life [7]: 73 h | tolerability ([8]; 30‐mg single dose, fed and fasted healthy subjects): safe and well tolerated | subjects with maximum QTcF ≤450 milliseconds ([8]; all subjects (N = 64)): 64 (100%) n (%) | subjects with maximum change from baseline QTcF ≤30 milliseconds ([8]; all subjects (N = 64)): 98.4% | Number of TEAEs ([8]; fasted (n = 34)): 16 | Number of treatment‐related AEs ([8]; fasted (n = 34)): 6 | Subjects with a treatment‐related AE, n (%) ([8]; fasted (n = 34)): 4 (11.8%) n (%) and 4 (11.8) n (%) | Subjects with any TEAE by maximum severity: Mild, n (%) ([8]; fasted (n = 34)): 7 (20.6) n (%) | Subjects with any TEAE by maximum severity: Moderate, n (%) ([8]; fasted (n = 34)): 1 (2.9) n (%) | Subjects with any TEAE by maximum severity: Severe, n (%) ([8]; fasted (n = 34)): 1 (2.9) n (%) | Subjects with a TEAE, n (%) ([8]; fasted (n = 34), single 30-mg dose): 9 (26.5%) n (%) and 9 (26.5) n (%) | Number of TEAEs ([8]; fed (n = 30)): 7 | Number of treatment‐related AEs ([8]; fed (n = 30)): 4 | Subjects with a treatment‐related AE, n (%) ([8]; fed (n = 30)): 2 (6.7%) n (%) and 2 (6.7) n (%) | Subjects with any TEAE by maximum severity: Mild, n (%) ([8]; fed (n = 30)): 5 (16.7) n (%) | Subjects with any TEAE by maximum severity: Moderate, n (%) ([8]; fed (n = 30)): 0 n (%) | Subjects with any TEAE by maximum severity: Severe, n (%) ([8]; fed (n = 30)): 0 n (%) | Subjects with a TEAE, n (%) ([8]; fed (n = 30), single 30-mg dose): 5 (16.7%) n (%) and 5 (16.7) n (%) | Number of TEAEs ([8]; overall (N = 64)): 23 | Number of treatment‐related AEs ([8]; overall (N = 64)): 10 | Subjects with a treatment‐related AE, n (%) ([8]; overall (N = 64)): 6 (9.4%) n (%) and 6 (9.4) n (%) | Subjects with any TEAE by maximum severity: Mild, n (%) ([8]; overall (N = 64)): 12 (18.8) n (%) | Subjects with any TEAE by maximum severity: Moderate, n (%) ([8]; overall (N = 64)): 1 (1.6) n (%) | Subjects with any TEAE by maximum severity: Severe, n (%) ([8]; overall (N = 64)): 1 (1.6) n (%) | Subjects with a TEAE, n (%) ([8]; overall (N = 64), single 30-mg dose): 14 (21.9) n (%) | serious AEs or discontinuations due to AEs ([8]; single 30-mg dose, fed and fasted): no discontinuations due to adverse events occurred; also recorded: no serious AEs or discontinuations due to AEs | subjects with maximum change from baseline QTcF >30 milliseconds and ≤60 milliseconds ([8]; subject in the fasted group, percentage of N = 64): 1 (1.6%) n (%)
